Structures can show the parent of a compound that is named as a salt.
Key:
[1] = system: dopamine release, striatum; assay: Release of biogenic amines from brain tissue: dopamine, striatum; format: in vivo, Wistar rats
Procedure: (§1) The method described in Life Sci., 56, 611-620 (1995) was used. After Wistar rats were decapitated, appropriate brain samples, which were striatun, substantia nigra, tuberculum olfactorium, locus coeruleus and raphe, were removed quickly and soaked in oxygenated (95% O2 and 5% CO2) Krebs solution at 37° C. The composition of Krebs solution was as follows in […]: NaCl 111, KCl 4.7, CaCl2 2.5, MgSO4 1.64, NaHCO3 25, KH2 PO4 1.2, glucose 11, 50 mg/l ascorbic add and 20 mg/l EDTA-2 Na. The preparations, soaked in one organ bath, were as follows: 1) four pieces of striatum (each halved), 2) four pieces of substantia nigra, 3) four pieces of tuberculum olfactorium; 4) eight pieces of locus coeruleus; 5) eight pieces of raphe. After incubation of the appropriate tissue for 20 min, the Krebs solution was replaced, the tissue soaked for 20 min in Krebs solution dissolving the compounds of this invention and the amount of biogenic amine released during this period of time was estimate. The compounds of this invention and PPAP, control compound, were dissolved in saline and were administered subcutaneously before 30 min to removing brain sample. For measuring noradrenaline and dopamine, samples were purified on 60 mg alumina containing micro columns (BDH Chemicals Ltd.) according to the method described in J. Pharmacol. Exp. Ther., 138, 360-372 (1962) For measuring serotonin, samples were purified on 15 mg Sephadex G-10 micro columns (Pharmacia). Dopamine, noradrenaline and serotonin were determined by high performance liquid chromatography (Waters 746 data module) with electrochemical detection (Waters 460 electrochemical detector). Waters Resolve 5μ Spherical C18 3.9×150 mm column was used as separating column and triethylamine-phosphate buffer (pH 5.2), containing 200 mg/l octane sulfonate sodium and 18 mg/l EDTA-2 Na with 6% acetonitrile, was used as mobile phase. The release amount of appropriate amine was noted as nmol/g tissue released for 20 min. deference of means tested by Student's t-test and significant level was set at P<.05.

[2] = system: dopamine release, substantia nigra; assay: Release of biogenic amines from brain tissue: dopamine, substantia nigra; format: in vivo, Wistar rats
Procedure: as §1

[3] = system: dopamine release, tuberculum olfactorium; assay: Release of biogenic amines from brain tissue: dopamine, tuberculum olfactorium; format: in vivo, Wistar rats
Procedure: as §1

[4] = system: noradrenaline release, locus coeruleus; assay: Release of biogenic amines from brain tissue: noradrenaline, locus coeruleus; format: in vivo, Wistar rats
Procedure: as §1

serotonin release, raphe = assay: Release of biogenic amines from brain tissue: serotonin, raphe; format: in vivo, Wistar rats
Procedure: as §1

human platelet MAO-B = target: T1, human platelet MAO-B (Homo sapiens, UniProt P27338); assay: biochemical; settings: 10^-5 M; read-out: Inhibition rate of MAO-B
T1 construct: The suspension was used as enzyme for MAO activity assay in blood platelets; from tissue; host or cells: human blood platelets (frozen, thawed and sonicated platelet rich plasma)
T1 sequence (P27338 1-520): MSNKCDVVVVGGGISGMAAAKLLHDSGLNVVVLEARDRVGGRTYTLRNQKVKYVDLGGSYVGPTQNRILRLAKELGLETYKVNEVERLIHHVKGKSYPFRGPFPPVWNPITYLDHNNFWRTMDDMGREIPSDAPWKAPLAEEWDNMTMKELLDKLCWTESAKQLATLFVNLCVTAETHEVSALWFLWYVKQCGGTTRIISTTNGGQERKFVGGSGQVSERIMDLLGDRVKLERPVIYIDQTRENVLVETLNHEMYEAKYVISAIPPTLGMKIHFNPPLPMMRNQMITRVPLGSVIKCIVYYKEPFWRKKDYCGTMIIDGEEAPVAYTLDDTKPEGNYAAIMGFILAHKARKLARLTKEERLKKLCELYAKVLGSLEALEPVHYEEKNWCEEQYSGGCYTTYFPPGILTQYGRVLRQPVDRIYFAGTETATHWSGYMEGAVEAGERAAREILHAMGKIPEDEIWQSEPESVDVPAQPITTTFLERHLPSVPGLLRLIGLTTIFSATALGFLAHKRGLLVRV
Procedure: Human blood added with 3.8% citric acid was centrifuged at 950 rpm for 10 min and platelet rich plasma (PRP) was obtained. The residual blood cell was centrifuged at 3,000 rpm for 10 min and platelet poor plasma (PPP) was obtained. After blood platelets were measured from a part of PRP, PRP and PPP were frozen at -20° C. They were thawed and were sonicated to be dispersed and suspended when MAO activity was measured. The suspension was used as enzyme for MAO activity assay in blood platelets. In addition, almost all of MAO in blood platelets have been known to be B type.
MAO-B activity was determined according to the method described in Biochem. Pharmacol., 14, 1684-1685 (1965). […] The mixture was incubated at 37° C. for 5 min. After 80 μl of PRP or PPP was added to it, the mixture was incubated at 37° C. for 20 min. Thereafter, 120 μl of substrate (0.33 mg/ml kynuramine dihydrobromide) was added thereto. After incubation at 37° C. for 30 min, 800 μl of 10% trichloroacetic acid were added to stop the reaction and the solution was centrifuged at 3,000 rpm for 10 min. To 1 ml of the supernatant, 2 ml of 1 N NaOH was added and fluorescence of the solution was measured at Ex 312 nm and Em 380 nm. PRP was prepared to 250,000 cell/μl as amounts of blood platelets with […] phosphate buffer solution and 4-hydroxyquinoline was used as standard for measurement.

[5] = Toxicity screening using primary cultured hepatocyte (LDH release); format: cell-based, rat; settings: rat, primary hepatocytes, 24 hr, control 0.5% saline or 0.5% DMSO, read-out: Percent control of LDH release
Procedure: The hepatocytes was prepared from rat liver by collagenase perfusion method and suspension containing 5×10^5 cells/ml were prepared. After cultivation for 24 hr, the suspension was exchanged to the William's Medium E (GIBCO BRL) containing 10 or 100 μM of the compounds of this invention. After cultivation for 24 hr, the activity of lactate dehydrogenase (LDH) released in the medium was measured.

[6] = system: rats reduced learning ability by tetrabenazine; assay: Conditioned avoidance task in the shuttle box (tetrabenazine-treated rats); format: in vivo, rat; settings: tetrabenazine 1 mg/kg s.c., significance and direction
Procedure: The method described in Life Sci., 58, 817-827 (1996) was used. The effects on conditioned avoidance reflex (CARs) was analyzed in the shuttle box using male and female rats (weighing 200-220 g) whose leaning abilities were reduced by treatment of tetrabenazine. The instrument was constructed, according to the device described in Psychopharmacologia 10, 1-5 (1966) by the Research Institute for Electrical Industry (Budapest, Hungary). The male and female rats (weighing 200-220 g) were trained to cross the berrier under the influence of a conditioned stimulus (CS) (light flash and buzzer sounds). […] And the performance which was not related to this condition was noted as an intersignal reaction (IR). The rats were trained with 100 trials per day for 5 days. One trial consisted of 15 sec intertrial interval. The saline solution of tetrabenazine was administered at a dose of 1 mg/kg subcutaneously before one hour prior to the test and then the solution of the compounds of this invention were administered at the doses of 1, 2, 2.5 and 5 mg/kg subcutaneously with the simultaneous administration of tetrabenazine. The nmbers of CARs, EFs and IRs were automatically counted and evaluated by multi-way analysis of variance (ANOVA).

CCCNC(CC)Cc1ccc2ccccc2c1 (stereo not shown) [Compound No. 10]
Release of dopamine, striatum ([1]; 1.00 mg/kg s.c.): 3.3 ± 0.22 nmol/g tissue, for 20 min | Release of dopamine, substantia nigra ([2]; 1.00 mg/kg s.c.): 6.2 ± 0.31 nmol/g tissue, for 20 min | Release of dopamine, tuberculum olfactorium ([3]; 1.00 mg/kg s.c.): 5.6 ± 0.35 nmol/g tissue, for 20 min | Release of noradrenaline, locus coeruleus ([4]; 1.00 mg/kg s.c.): 2.9 ± 0.15 nmol/g tissue, for 20 min | Release of serotonin, raphe (serotonin release, raphe; 1.00 mg/kg s.c.): 0.603 ± 0.10 nmol/g tissue, for 20 min | inhibition at 10 µM (human platelet MAO-B): 37.2%

CCCC(Cc1ccc2ccccc2c1)NCC(C)(C)C (stereo not shown) [Compound No. 14]
activity at 24 h, 10 µM [5]: 108 ± 4.18% | activity at 24 h, 100 µM [5]: 131 ± 7.08%

CCCNC(CCC)Cc1ccc2cc(OC)ccc2c1 (stereo not shown) [Compound No. 15]
Condition Avoidance Reflex (CARs) ([6]; 5 mg/kg s.c.): * .Arrow-up bold.

CCCNC(CCC)Cc1cc2ccccc2[nH]1 (stereo not shown) [Compound No. 19, 1-(Indol-2-yl)-2-propylaminopentane Hydrochloride]
activity at 24 h, 10 µM [5]: 82.4 ± 8.34% | activity at 24 h, 100 µM [5]: 180 ± 5.54%

CCCCNC(CCC)Cc1ccc2c(c1)OCO2.Cl (stereo not shown) [Compound No. 29, 1-(1,3-Benzodioxol-5-yl)-2-butylaminopentane Hydrochloride]
Condition Avoidance Reflex (CARs) ([6]; 2.5 mg/kg s.c.): * .Arrow-up bold. | Condition Avoidance Reflex (CARs) ([6]; 5 mg/kg s.c.): *** .Arrow-up bold. | Intersignal Reactions (IRs) ([6]; 5 mg/kg s.c.): *** .dwnarw. | activity at 24 h, 10 µM [5]: 103 ± 6.02% | activity at 24 h, 100 µM [5]: 101 ± 2.94%

CCCC(Cc1ccc2c(c1)OCO2)NC(C)CC (stereo not shown) [Compound No. 30]
Condition Avoidance Reflex (CARs) ([6]; 5 mg/kg s.c.): **** .Arrow-up bold. | Intersignal Reactions (IRs) ([6]; 5 mg/kg s.c.): * .dwnarw. | activity at 24 h, 10 µM [5]: 99.5 ± 5.44% | activity at 24 h, 100 µM [5]: 138 ± 4.57%

CCCC(Cc1ccc2c(c1)OCO2)NC(CC)CC (stereo not shown) [Compound No. 31]
activity at 24 h, 10 µM [5]: 102.5 ± 0.84% | activity at 24 h, 100 µM [5]: 153 ± 4.35%

CCCC(Cc1ccc2c(c1)OCO2)Nc1ccc(C)cc1.Cl (stereo not shown) [Compound No. 33, 1-(1,3-Benzodioxol-5-yl)-2-p-toluidinopentane Hydrochloride]
Condition Avoidance Reflex (CARs) ([6]; 5 mg/kg s.c.): * .Arrow-up bold. | Intersignal Reactions (IRs) ([6]; 5 mg/kg s.c.): * .dwnarw. | activity at 24 h, 10 µM [5]: 94 ± 4.16% | activity at 24 h, 100 µM [5]: 152 ± 5.71%

CCCNC(CCC)Cc1ccc2c(c1)OCCO2 (stereo not shown) [Compound No. 35, 1-(1,4-Benzodioxan-6-yl)-2-propylaminopentane Hydrochloride]
activity at 24 h, 10 µM [5]: 103 ± 10.6% | activity at 24 h, 100 µM [5]: 147 ± 5.07%

CCCNC(CCC)Cc1ccc2c(c1)CCO2 (stereo not shown) [Compound No. 36, 1-(2,3-Dihydrobenzofuran-5-yl)-2-propylaminopentane Hydrochloride]
activity at 24 h, 10 µM [5]: 101 ± 2.24% | activity at 24 h, 100 µM [5]: 111 ± 6.58%

CCCNC(CCC)Cc1ccc2c(c1)CCC2.Cl (stereo not shown) [Compound No. 37, 1-(Indan-5-yl)-2-propylaminopentane Hydrochloride]
Condition Avoidance Reflex (CARs) ([6]; 5 mg/kg s.c.): * .Arrow-up bold. | activity at 24 h, 10 µM [5]: 83.8 ± 5.65% | activity at 24 h, 100 µM [5]: 193 ± 8.51%

CCCNC(CCC)Cc1ccc2cc[nH]c2c1.Cl (stereo not shown) [compound 22, 1-(Indol-6-yl)-2-propylaminopentane Hydrochloride]
Condition Avoidance Reflex (CARs) ([6]; 0.5 mg/kg s.c.): * .Arrow-up bold. | Condition Avoidance Reflex (CARs) ([6]; 1 mg/kg s.c.): *** .Arrow-up bold. | Condition Avoidance Reflex (CARs) ([6]; 5 mg/kg s.c.): **** .Arrow-up bold. | Escape Failures (EFs) ([6]; 5 mg/kg s.c.): * .dwnarw. | Release of dopamine, striatum ([1]; 0.01 mg/kg s.c.): 6.5 ± 0.06 nmol/g tissue, for 20 min | Release of dopamine, substantia nigra ([2]; 0.01 mg/kg s.c.): 11.9 ± 0.39 nmol/g tissue, for 20 min | Release of dopamine, tuberculum olfactorium ([3]; 0.01 mg/kg s.c.): 9.7 ± 0.17 nmol/g tissue, for 20 min | Release of noradrenaline, locus coeruleus ([4]; 0.01 mg/kg s.c.): 4.8 ± 0.05 nmol/g tissue, for 20 min | Release of serotonin, raphe (serotonin release, raphe; 0.01 mg/kg s.c.): 0.322 ± 0.01 nmol/g tissue, for 20 min

CCCNC(CCC)Cc1cc2ccccc2s1.Cl (stereo not shown) [compound 38, 1-(2-Benzothienyl)-2-propylaminopentane Hydrochloride]
Escape Failures (EFs) ([6]; 1 mg/kg s.c.): **** .dwnarw. | Condition Avoidance Reflex (CARs) ([6]; 2.5 mg/kg s.c.): **** .Arrow-up bold. | Intersignal Reactions (IRs) ([6]; 2.5 mg/kg s.c.): * .Arrow-up bold. | Release of dopamine, striatum ([1]; 0.01 mg/kg s.c.): 7.9 ± 0.19 nmol/g tissue, for 20 min | Release of dopamine, substantia nigra ([2]; 0.01 mg/kg s.c.): 14.0 ± 0.23 nmol/g tissue, for 20 min | Release of dopamine, tuberculum olfactorium ([3]; 0.01 mg/kg s.c.): 11.5 ± 0.14 nmol/g tissue, for 20 min | Release of noradrenaline, locus coeruleus ([4]; 0.01 mg/kg s.c.): 3.6 ± 0.05 nmol/g tissue, for 20 min | Release of serotonin, raphe (serotonin release, raphe; 0.01 mg/kg s.c.): 0.375 ± 0.02 nmol/g tissue, for 20 min

CCCNC(CCC)Cc1csc2ccccc12.Cl (stereo not shown) [compound 39, 1-(3-Benzothienyl)-2-propylaminopentane Hydrochloride]
Escape Failures (EFs) ([6]; 1 mg/kg s.c.): *** .dwnarw. | Condition Avoidance Reflex (CARs) ([6]; 2.5 mg/kg s.c.): **** .Arrow-up bold. | Escape Failures (EFs) ([6]; 2.5 mg/kg s.c.): **** .dwnarw. | Release of dopamine, striatum ([1]; 0.01 mg/kg s.c.): 7.1 ± 0.15 nmol/g tissue, for 20 min | Release of dopamine, substantia nigra ([2]; 0.01 mg/kg s.c.): 12.0 ± 0.34 nmol/g tissue, for 20 min | Release of dopamine, tuberculum olfactorium ([3]; 0.01 mg/kg s.c.): 10.9 ± 0.25 nmol/g tissue, for 20 min | Release of noradrenaline, locus coeruleus ([4]; 0.01 mg/kg s.c.): 4.1 ± 0.15 nmol/g tissue, for 20 min | Release of serotonin, raphe (serotonin release, raphe; 0.01 mg/kg s.c.): 0.256 ± 0.01 nmol/g tissue, for 20 min

Reference: patent US6214859A, “Ethylamine derivatives” (Fujimoto Brothers Co., Ltd., priority 1997, dated 2001)
